According to patent US9393190B2, “Methods for enhancing skin tan and reducing risks of UV skin damage” (DSM IP ASSETS B.V., priority 2009, dated 2016):

Tested on: Normal human melanocytes NHM (HEMn-MP, Clonetics)
Assay: Quantification of melanin synthesis in cell culture (total melanin, absorbance at 405 nm)
Type: cell-based
Protocol: Quantification of Melanin Synthesis in Cell Culture:
Normal human melanocytes NHM (HEMn-MP, Clonetics) were seeded in 96 well cell culture plates and grown to sub-confluence for two days in a mixture of M2-Medium (Clonetics) and Medium (Promocell). Culture medium was exchanged with Culture Medium containing Steviol (96%) and melanogenesis progressed for another three days at 37° C. with another medium exchange on day two. Including cell layer and culture supernatant the total melanin was extracted using 1.7M KOH with vigorous shaking at RT. The total melanin content was determined at 405 nm in an absorbance plate reader versus a control (100%)

In the case of `C=C1C[C@@]23CC[C@H]4[C@@](C)(CCC[C@@]4(C)C(=O)O)[C@@H]2CC[C@]1(O)C3` [Steviol], the “effect on the production of melanin in human melanocytes” value (0.25 to 1 micro M) is reported as “clear dose dependent positive effect” and the “potency relative to positive control Glycyrrhizin” value (melanin production in human melanocytes) is reported as “about 1000 times”.
